Test results taken from patent US12145929B2, “Piperidine derivative and pharmaceutical composition for inhibiting autotaxin comprising same” (NEXTGEN BIOSCIENCE CO., LTD., priority 2021, dated 2024).

These compounds were tested against human Autotaxin protein (Homo sapiens, UniProt Q13822) (assay: Evaluation of inhibitory activity against human Autotaxin protein (18:1 LysoPC substrate, choline assay kit, absorbance 570 nm)). Conditions: compound at 500 nM, 2 hours at 37° C.
Type: biochemical
Procedure: The solution of each synthesized compound (80 uM, 100% dimethyl sulfoxide) was sequentially diluted 5 times with dimethyl sulfoxide to prepare 6 concentrations. Each concentration of compound was diluted two-fold with 1× test buffer (50 mM Tris-Cl (pH 8.0), 5 mM KCl, 1 mM CaCl2), 1 mM MgCl2, 140 mM NaCl, deionized water, 1 mg/mL BSA), and 1 uL (1.25% dimethyl sulfoxide) of this diluted mixture was dispensed into each well of a 96 well clear round bottom plate. 9 uL of 1× test buffer were added to each well, followed by the addition of 20 uL of 240 nM human Autotaxin protein (buffer: 50 mM Tris-HCl, pH 8.0, with 150 mM sodium chloride and 20% glycerol). 10 uL of sonicated 360 uM 18:1 LysoPC (diluted with 1× test buffer) were added to each well. The reaction was performed for 2 hours in a shaking incubator at 37° C., and a secondary reaction mixture (choline assay kit, KA1662) (65 uL of 1× test buffer: 1 uL of choline oxidase: 1 uL of dye probe) was prepared. 60 uL of the secondary reaction mixture were added to the reaction plate and reacted on a shaker for 30 minutes. Using a SpectraMax iD3 microplate reader, the absorbance was measured at a wavelength of 570 nm. The percentage of inhibition activity (% inhibition) was calculated by the Formula: (1−Absorbancetestgroup/Absorbancecontrol group)×100.

SMILES | inhibition at 0.5 µM | inhibition (%) at 500 nM
Fc1cc2c(cc1F)CC(Nc1ncc(-c3nnc(N4CCC(n5cnnn5)CC4)o3)cn1)C2 [Example 28, 5-(5-(4-(1H-Tetrazol-1-yl)piperidin-1-yl)-1,3,4-oxadiazol-2-yl)-N-(5,6-difluoro-2,3-dihydro-1H-inden-2-yl)pyrimidin-2-amine] | 52.5% | 
c1ccc2c(c1)CC(Nc1ncc(C3CC(N4CCC(c5nnn[nH]5)CC4)=NO3)cn1)C2 (stereo not shown) [Example 50, 5-(3-(4-(1H-tetrazol-5-yl)piperidin-1-yl)-4,5-dihydroisoxazol-5-yl)-N-(2,3-dihydro-1H-inden-2-yl)pyrimidin-2-amine] | 7% | 
CC1CC(c2cnn[nH]2)CCN1c1nnc(-c2cnc(NC3Cc4cc(F)c(F)cc4C3)nc2)o1 (stereo not shown) [Example 54, N-(5,6-difluoro-2,3-dihydro-1H-inden-2-yl)-5-(5-(2-methyl-4-(1H-1,2,3-triazol-5-yl)piperidin-1-yl)-1,3,4-oxadiazol-2-yl)pyrimidin-2-amine] | 95.3% | 
c1ccc(CNc2ncc(C3CC(N4CCC(c5cnn[nH]5)CC4)=NO3)cn2)cc1 (stereo not shown) [Example 42, N-benzyl-5-[3-[4-(1H-triazol-5-yl)-1-piperidyl]-4,5-dihydroisoxazol-5-yl]pyrimidin-2-amine] |  | 8.6%
CC1CC(c2cnn[nH]2)CCN1c1nnc(-c2cnc(NC3Cc4ccc(Br)cc4C3)nc2)o1 (stereo not shown) [Example 11, N-(5-bromo-2,3-dihydro-1H-inden-2-yl)-5-(5-(2-methyl-4-(1H-1,2,3-triazol-5-yl)piperidin-1-yl)-1,3,4-oxadiazol-2-yl)pyrimidin-2-amine] | 99% | 
Fc1ccc2c(c1)CC(Nc1ncc(C3CC(N4CCC(c5nnc(C(F)(F)F)o5)CC4)=NO3)cn1)C2 (stereo not shown) [Example 53, N-(5-fluoro-2,3-dihydro-1H-inden-2-yl)-5-(3-(4-(5-(trifluoromethyl)-1,3,4-oxadiazol-2-yl)piperidin-1-yl)-4,5-dihydroisoxazol-5-yl)pyrimidin-2-amine] | 10.2% | 
Fc1cc2c(cc1F)CC(Nc1ncc(-c3cc(N4CCC(c5cnn[nH]5)CC4)no3)cn1)C2 [Example 38, 5-(3-(4-(1H-1,2,3-triazol-5-yl)piperidin-1-yl)isoxazol-5-yl)-N-(5,6-difluoro-2,3-dihydro-1H-inden-2-yl)pyrimidin-2-amine] | 53.2% | 
NS(=O)(=O)C1CCN(c2nnc(-c3cnc(NC4Cc5cc(F)c(F)cc5C4)nc3)o2)CC1 [Example 65, 1-(5-(2-((5,6-Difluoro-2,3-dihydro-1H-inden-2-yl)amino)pyrimidin-5-yl)-1,3,4-oxadiazol-2-yl)piperidine-4-sulfonamide] | 58% | 
Clc1cc(Cl)cc(CCNc2ncc(C3CC(N4CCC(c5cnn[nH]5)CC4)=NO3)cn2)c1 (stereo not shown) [Example 47, 5-(3-(4-(1H-1,2,3-triazol-5-yl)piperidin-1-yl)-4,5-dihydroisoxazol-5-yl)-N-(3,5-dichlorophenethyl)pyrimidin-2-amine] | 29.2% | 
c1cnc2c(n1)CC(Nc1ncc(-c3nnc(N4CCC(c5cnn[nH]5)CC4)o3)cn1)C2 [Example 7, N-(5-(5-(4-(1H-1,2,3-triazol-5-yl)piperidin-1-yl)-1,3,4-oxadiazol-2-yl)pyrimidin-2-yl)-6,7-dihydro-5H-cyclopenta[b]pyrazin-6-amine] | 40% | 
Fc1ccc2c(c1)CC(Nc1ncc(C3CC(N4CCC(c5cnn[nH]5)CC4)=NO3)cn1)C2 (stereo not shown) [Example 39, 5-(3-(4-(1H-1,2,3-triazol-5-yl)piperidin-1-yl)-4,5-dihydroisoxazol-5-yl)-N-(5-fluoro-2,3-dihydro-1H-inden-2-yl)pyrimidin-2-amine] | 97.2% | 
O=C(CCCc1nnc(NC2Cc3ccccc3C2)s1)N1CCC(c2cnn[nH]2)CC1 [Example 19, 1-(4-(1H-1,2,3-Triazol-5-yl)piperidin-1-yl)-4-(5-((2,3-dihydro-1H-inden-2-yl)amino)-1,3,4-thiadiazol-2-yl)butan-1-one] | 43% | 
Fc1ccc(CNc2ncc(C3CC(N4CCC(c5cnn[nH]5)CC4)=NO3)cn2)cc1F (stereo not shown) [Example 43, N-[(3,4-difluorophenyl)methyl]-5-[3-[4-(1H-triazol-5-yl)-1-piperidyl]-4,5-dihydroisoxazol-5-yl]pyrimidin-2-amine] |  | 4.6%
CN(c1ncc(-c2nnc(N3CCC(c4cnn[nH]4)CC3)o2)cn1)C1Cc2cc(F)c(F)cc2C1 [Example 32, 5-(5-(4-(1H-1,2,3-triazol-5-yl)piperidin-1-yl)-1,3,4-oxadiazol-2-yl)-N-(5,6-difluoro-2,3-dihydro-1H-inden-2-yl)-N-methylpyrimidin-2-amine] | 34.3% | 
Fc1ccc2c(c1)CC(Nc1ncc(-c3nnc(N4CCC(c5cnn[nH]5)CC4)o3)cn1)C2 (stereo not shown) [Example 2, 5-(5-(4-(1H-1,2,3-Triazol-5-yl)piperidin-1-yl)-1,3,4-oxadiazol-2-yl)-N-(5-fluoro-2,3-dihydro-1H-inden-2-yl)pyrimidin-2-amine] | 100% | 
Brc1ccc2c(c1)CC(Nc1ccc(-c3nnc(N4CCC(c5cnn[nH]5)CC4)o3)cn1)C2 (stereo not shown) [Example 12, 5-(5-(4-(1H-1,2,3-Triazol-5-yl)piperidin-1-yl)-1,3,4-oxadiazol-2-yl)-N-(5-bromo-2,3-dihydro-1H-inden-2-yl)pyridin-2-amine] | 84% | 
CS(=O)(=O)c1cccc(CNc2ncc(C3CC(N4CCC(c5cnn[nH]5)CC4)=NO3)cn2)c1 (stereo not shown) [Example 48, 5-(3-(4-(1H-1,2,3-triazol-5-yl)piperidin-1-yl)-4,5-dihydroisoxazol-5-yl)-N-(3-(methylsulfonyl)benzyl)pyrimidin-2-amine] | 3.4% | 
Fc1cc(F)cc(CNc2ncc(C3CC(N4CCC(c5cnn[nH]5)CC4)=NO3)cn2)c1 (stereo not shown) [Example 41, N-[(3,5-difluorophenyl)methyl]-5-[3-[4-(1H-triazol-5-yl)-1-piperidyl]-4,5-dihydroisoxazol-5-yl]pyrimidin-2-amine] |  | 40.6%
c1ccc2c(c1)CC(Nc1ncc(-c3nnc(N4CCC(c5cnn[nH]5)CC4)o3)cn1)C2 [Example 1, 5-(5-(4-(1H-1,2,3-Triazol-5-yl)piperidin-1-yl)-1,3,4-oxadiazol-2-yl)-N-(2,3-dihydro-1H-inden-2-yl)pyrimidin-2-amine] | 99% | 
CS(=O)(=O)c1ccc(CNc2ncc(C3CC(N4CCC(c5cnn[nH]5)CC4)=NO3)cn2)cc1 (stereo not shown) [Example 49, 5-(3-(4-(1H-1,2,3-triazol-5-yl)piperidin-1-yl)-4,5-dihydroisoxazol-5-yl)-N-(4-(methylsulfonyl)benzyl)pyrimidin-2-amine] | 1.2% | 
Fc1cc2c(cc1F)CC(Nc1ncc(-c3nnc(N4CCC(c5nnc(C(F)(F)F)o5)CC4)o3)cn1)C2 [Example 24, N-(5,6-difluoro-2,3-dihydro-1H-inden-2-yl)-5-(5-(4-(5-(trifluoromethyl)-1,3,4-oxadiazol-2-yl)piperidin-1-yl)-1,3,4-oxadiazol-2-yl)pyrimidin-2-amine] | 30.2% | 
Fc1cc2c(cc1F)CC(Nc1ncc(C3CC(N4CCC(c5cnn[nH]5)CC4)=NO3)cn1)C2 (stereo not shown) [Example 37, N-(5,6-difluoroindan-2-yl)-5-[3-[4-(1H-triazol-5-yl)-1-piperidyl]-4,5-dihydroisoxazol-5-yl]pyrimidin-2-amine] |  | 93.2%
